PubChem BioAssay (NCI)
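Five compound concentrations were applied to cells in 96-well plates for 48 hours; endpoints were derived by simple linear interpolation of the resulting dose-response curve. TGI: total growth inhibition.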

Columns and labels:
Experiment in all cases: inhibition of tumour cell growth, NCI panel, 48 h
HOP-92 NSCLC = system: HOP-92 NSCLC
SNB-19 CNS = system: SNB-19 CNS
UACC-257 melanoma = system: UACC-257 melanoma
SF-268 CNS = system: SF-268 CNS
KM12 colon = system: KM12 colon
ACHN renal = system: ACHN renal
NCI-H522 lung = system: NCI-H522 lung
HCT-116 colon = system: HCT-116 colon
MCF7 breast = system: MCF7 breast
LOX IMVI melanoma = system: LOX IMVI melanoma
786-0 renal = system: 786-0 renal
OVCAR-3 ovarian = system: OVCAR-3 ovarian

COc1cc(-c2nc3ccc(N4CCN(C)CC4)cc3[nH]2)c(OC)c2[nH]c(COC(C)=O)nc12
TGI (HOP-92 NSCLC): > 100 µM | TGI (SNB-19 CNS): > 100 µM | TGI (UACC-257 melanoma): > 100 µM | TGI (SF-268 CNS): > 100 µM | TGI (KM12 colon): > 100 µM | TGI (ACHN renal): > 100 µM | TGI (NCI-H522 lung): > 100 µM | TGI (HCT-116 colon): > 100 µM | TGI (MCF7 breast): > 100 µM | TGI (LOX IMVI melanoma): 96.4 µM | TGI (786-0 renal): > 100 µM | TGI (OVCAR-3 ovarian): > 100 µM

CCOC(=O)c1nc2ccc(C(F)(F)F)cc2nc1Nc1cc(OC)c(OC)c(OC)c1
TGI (HOP-92 NSCLC): > 100 µM | TGI (SNB-19 CNS): > 100 µM | TGI (UACC-257 melanoma): > 100 µM | TGI (SF-268 CNS): > 100 µM | TGI (KM12 colon): > 100 µM | TGI (ACHN renal): > 100 µM | TGI (NCI-H522 lung): > 100 µM | TGI (HCT-116 colon): > 100 µM | TGI (MCF7 breast): > 100 µM | TGI (LOX IMVI melanoma): > 100 µM | TGI (786-0 renal): > 100 µM | TGI (OVCAR-3 ovarian): > 100 µM

O=C(CN(C(=O)OC12CC3CC(CC(C3)C1)C2)C(=O)OC12CC3CC(CC(C3)C1)C2)Oc1ccc([N+](=O)[O-])cc1
TGI (HOP-92 NSCLC): > 100 µM | TGI (SNB-19 CNS): > 100 µM | TGI (UACC-257 melanoma): > 100 µM | TGI (SF-268 CNS): > 100 µM | TGI (KM12 colon): > 100 µM | TGI (ACHN renal): > 100 µM | TGI (NCI-H522 lung): > 100 µM | TGI (HCT-116 colon): > 100 µM | TGI (MCF7 breast): > 100 µM | TGI (LOX IMVI melanoma): > 100 µM | TGI (786-0 renal): > 100 µM | TGI (OVCAR-3 ovarian): > 100 µM

COc1ccc([N+](=O)[O-])c2c(NCCCN(C)C)ccnc12
TGI (HOP-92 NSCLC): 4.38 µM | TGI (SNB-19 CNS): 28.2 µM | TGI (UACC-257 melanoma): 12 µM | TGI (SF-268 CNS): 28.9 µM | TGI (KM12 colon): 24.2 µM | TGI (ACHN renal): 14.5 µM | TGI (NCI-H522 lung): 3.34 µM | TGI (HCT-116 colon): 22.8 µM | TGI (MCF7 breast): > 38.8 µM | TGI (LOX IMVI melanoma): 31 µM | TGI (786-0 renal): 30.6 µM | TGI (OVCAR-3 ovarian): 6.78 µM

CC(O)C1(CNc2cc(Cl)nc(N)n2)CCCCC1 (configuration not stated)
TGI (HOP-92 NSCLC): > 100 µM | TGI (SNB-19 CNS): > 100 µM | TGI (UACC-257 melanoma): > 100 µM | TGI (SF-268 CNS): > 100 µM | TGI (KM12 colon): > 100 µM | TGI (ACHN renal): > 100 µM | TGI (NCI-H522 lung): > 100 µM | TGI (HCT-116 colon): > 100 µM | TGI (MCF7 breast): > 100 µM | TGI (LOX IMVI melanoma): > 100 µM | TGI (786-0 renal): > 100 µM | TGI (OVCAR-3 ovarian): > 100 µM

CCOC(=O)c1cc(-n2nnc3ccccc32)cn1C
TGI (HOP-92 NSCLC): > 10 µM | TGI (SNB-19 CNS): > 10 µM | TGI (UACC-257 melanoma): > 10 µM | TGI (SF-268 CNS): > 10 µM | TGI (KM12 colon): > 10 µM | TGI (ACHN renal): > 10 µM | TGI (NCI-H522 lung): > 10 µM | TGI (HCT-116 colon): > 10 µM | TGI (MCF7 breast): > 10 µM | TGI (LOX IMVI melanoma): > 10 µM | TGI (786-0 renal): > 10 µM | TGI (OVCAR-3 ovarian): > 10 µM

CC(Oc1ccccc1Cl)C(=O)NN1C(=O)CC(=O)N(c2ccccc2)C1=S (configuration not stated)
TGI (HOP-92 NSCLC): 68.8 µM | TGI (SNB-19 CNS): > 100 µM | TGI (UACC-257 melanoma): > 100 µM | TGI (SF-268 CNS): > 100 µM | TGI (KM12 colon): > 100 µM | TGI (ACHN renal): > 100 µM | TGI (NCI-H522 lung): > 100 µM | TGI (HCT-116 colon): > 100 µM | TGI (MCF7 breast): > 100 µM | TGI (LOX IMVI melanoma): > 100 µM | TGI (786-0 renal): > 100 µM | TGI (OVCAR-3 ovarian): > 100 µM

CCCCCCCCCCCC(=O)OC[C@H](C[As](=O)(O)O)OC(=O)CCCCCCCCCCC
TGI (HOP-92 NSCLC): 3.85 µM | TGI (SNB-19 CNS): 17.7 µM | TGI (UACC-257 melanoma): 24.9 µM | TGI (SF-268 CNS): > 42.5 µM | TGI (KM12 colon): 22 µM | TGI (ACHN renal): 9.07 µM | TGI (NCI-H522 lung): 5.09 µM | TGI (HCT-116 colon): 21.7 µM | TGI (MCF7 breast): 21.9 µM | TGI (LOX IMVI melanoma): 23.6 µM | TGI (786-0 renal): 26 µM | TGI (OVCAR-3 ovarian): 19.3 µM

COC(=O)C1CCC(=O)N1C(c1cc(OC)c(OC)c(OC)c1)c1cc(OC)c(OC)c(OC)c1 (configuration not stated)
TGI (HOP-92 NSCLC): > 100 µM | TGI (SNB-19 CNS): > 100 µM | TGI (UACC-257 melanoma): > 100 µM | TGI (SF-268 CNS): > 100 µM | TGI (KM12 colon): > 100 µM | TGI (ACHN renal): > 100 µM | TGI (NCI-H522 lung): > 100 µM | TGI (HCT-116 colon): > 100 µM | TGI (MCF7 breast): > 100 µM | TGI (LOX IMVI melanoma): > 100 µM | TGI (786-0 renal): > 100 µM | TGI (OVCAR-3 ovarian): > 100 µM

CSC1NC(c2ccccc2)=C(C#N)C(=O)N1C1OCC(OC(C)=O)C(OC(C)=O)C1OC(C)=O (configuration not stated)
TGI (HOP-92 NSCLC): > 100 µM | TGI (SNB-19 CNS): > 100 µM | TGI (UACC-257 melanoma): > 100 µM | TGI (SF-268 CNS): > 100 µM | TGI (KM12 colon): > 100 µM | TGI (ACHN renal): > 100 µM | TGI (NCI-H522 lung): > 100 µM | TGI (HCT-116 colon): > 100 µM | TGI (MCF7 breast): > 100 µM | TGI (LOX IMVI melanoma): > 100 µM | TGI (786-0 renal): > 100 µM | TGI (OVCAR-3 ovarian): > 100 µM

COC(=O)C1CCN(C(=O)OC(C)(C)C)CC1
TGI (HOP-92 NSCLC): > 100 µM | TGI (SNB-19 CNS): > 100 µM | TGI (UACC-257 melanoma): > 100 µM | TGI (SF-268 CNS): > 100 µM | TGI (KM12 colon): > 100 µM | TGI (ACHN renal): > 100 µM | TGI (NCI-H522 lung): > 100 µM | TGI (HCT-116 colon): > 100 µM | TGI (MCF7 breast): > 100 µM | TGI (LOX IMVI melanoma): > 100 µM | TGI (786-0 renal): > 100 µM | TGI (OVCAR-3 ovarian): > 100 µM
